In patent publication US6495591B1, “Fungal efflux pump inhibitors” (Essential Therapeutics, Inc., priority 1997, dated 2002):
Where two headings read alike, the source gives them in different places.

Legend:
[1] = system: YEM 13 C. albicans BEN up; experiment: microbe, parasite or virus in culture; type: cell-based; settings: YEM 13, 24 hrs, 80% inhibition; for MIC of compound in the presence of fluconazole (+): 1/8 × MIC of fluconazole
[2] = system: YEM 17 C. glabrata, CgCDR up; type: cell-based; settings: 24 hrs, 80% inhibition; for MIC of compound in the presence of fluconazole (+): 1/8 × MIC of fluconazole
[3] = target: pCDR2 (ABC) efflux pump in S. cerevisiae YEM-37 (Candida albicans, UniProt P78595); experiment: cell-based; type: cell-based, C. albicans
[4] = target: pBEN (MF) efflux pump in S. cerevisiae YEM-2 (Candida albicans, UniProt P28873); experiment: cell-based; type: cell-based, C. albicans
[5] = system: YEM 24 C. albicans ΔCDR1, ΔCDR2; experiment: microbe, parasite or virus in culture; type: cell-based; settings: YEM 24, 24 hrs, 80% inhibition; for MIC of compound in the presence of fluconazole (+): 1/8 × MIC of fluconazole
Aspergillus fumigatus = experiment: FEPI MICs in combination with 1/4 the azole's MIC (Table 12); type: cell-based; design: FEPI MIC (alone): unit not given here; settings: for FEPI MIC with itraconazole, 60% Inh / FEPI MIC with itraconazole, 80% Inh: itraconazole 0.063 μg/ml (1/4 MIC); for FEPI MIC with ketoconazole, 60% Inh / FEPI MIC with ketoconazole, 80% Inh: ketoconazole 4 μg/ml (1/4 MIC); for FEPI MIC (alone): no azole, 35° C., CM Broth
Method: The combinations were tested against a series of Candida strain with known expression of efflux pumps or with complete deletion of all known pumps and Aspergillus fumigatus. Results are reported as minimum inhibitory concentration (MIC) of […] in the presence or absence of […]. A total of 27 distinct milbemycins were studied.

[6] = system: YEM 27 C. albicans ΔCDR1ΔCDR2 ΔBENΔFLU1; experiment: microbe, parasite or virus in culture; type: cell-based; settings: YEM 27, 24 hrs, 80% inhibition; for MIC of compound in the presence of fluconazole (+): 1/8 × MIC of fluconazole
[7] = target: pCgCDR (ABC) efflux pump in S. cerevisiae YEM-39 (Candida glabrata, UniProt Q6FK23); experiment: cell-based; type: cell-based, C. glabrata
[8] = target: pFLU (MF) efflux pump in S. cerevisiae YEM-38 (Candida albicans, UniProt G1UB37); experiment: cell-based; type: cell-based, C. albicans
YEM 53 C. krusei = experiment: FEPI MIC with/without 1/8 fluconazole MIC at 24 hrs (Table 11); type: cell-based
[9] = system: pCgBEN (MF) efflux pump in S. cerevisiae YEM-40; type: cell-based, C. glabrata
[10] = system: YEM 15 C. albicans, CDR1CDR2 up; experiment: microbe, parasite or virus in culture; type: cell-based; settings: YEM 15, 24 hrs, 80% inhibition; for MIC of compound in the presence of fluconazole (+): 1/8 × MIC of fluconazole
YEM 30 C. albicans wt = experiment: FEPI MIC with/without 1/8 fluconazole MIC at 24 hrs (Table 11); type: cell-based
[11] = target: pCDRI (ABC) efflux pump in S. cerevisiae YEM-1 (Candida albicans, UniProt P43071); experiment: cell-based; type: cell-based, C. albicans
YEM 51 C. glabrata wt = experiment: FEPI MIC with/without 1/8 fluconazole MIC at 24 hrs (Table 11); type: cell-based
[12] = YEM-40 pCgBEN, fluconazole fixed at FLUhalf 2.8

Chain of pFLU (MF) efflux pump in S. cerevisiae YEM-38 (G1UB37 whole entry): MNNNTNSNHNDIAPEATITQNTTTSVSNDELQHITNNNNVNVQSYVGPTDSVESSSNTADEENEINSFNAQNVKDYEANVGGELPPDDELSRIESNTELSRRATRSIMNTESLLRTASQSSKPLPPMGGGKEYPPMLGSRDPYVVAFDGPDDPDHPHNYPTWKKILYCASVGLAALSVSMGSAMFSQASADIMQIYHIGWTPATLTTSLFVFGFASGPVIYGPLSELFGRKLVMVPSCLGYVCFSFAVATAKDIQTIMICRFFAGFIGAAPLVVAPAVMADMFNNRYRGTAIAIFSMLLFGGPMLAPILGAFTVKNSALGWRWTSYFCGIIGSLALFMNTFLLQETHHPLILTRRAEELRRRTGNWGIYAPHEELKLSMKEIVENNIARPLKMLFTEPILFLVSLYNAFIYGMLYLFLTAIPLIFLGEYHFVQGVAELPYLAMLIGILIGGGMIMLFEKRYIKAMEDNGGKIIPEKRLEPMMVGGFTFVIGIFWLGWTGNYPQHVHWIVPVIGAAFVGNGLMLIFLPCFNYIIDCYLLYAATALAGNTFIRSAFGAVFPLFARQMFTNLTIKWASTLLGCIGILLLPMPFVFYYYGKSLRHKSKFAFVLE
Chain of pBEN (MF) efflux pump in S. cerevisiae YEM-2 (P28873 whole entry): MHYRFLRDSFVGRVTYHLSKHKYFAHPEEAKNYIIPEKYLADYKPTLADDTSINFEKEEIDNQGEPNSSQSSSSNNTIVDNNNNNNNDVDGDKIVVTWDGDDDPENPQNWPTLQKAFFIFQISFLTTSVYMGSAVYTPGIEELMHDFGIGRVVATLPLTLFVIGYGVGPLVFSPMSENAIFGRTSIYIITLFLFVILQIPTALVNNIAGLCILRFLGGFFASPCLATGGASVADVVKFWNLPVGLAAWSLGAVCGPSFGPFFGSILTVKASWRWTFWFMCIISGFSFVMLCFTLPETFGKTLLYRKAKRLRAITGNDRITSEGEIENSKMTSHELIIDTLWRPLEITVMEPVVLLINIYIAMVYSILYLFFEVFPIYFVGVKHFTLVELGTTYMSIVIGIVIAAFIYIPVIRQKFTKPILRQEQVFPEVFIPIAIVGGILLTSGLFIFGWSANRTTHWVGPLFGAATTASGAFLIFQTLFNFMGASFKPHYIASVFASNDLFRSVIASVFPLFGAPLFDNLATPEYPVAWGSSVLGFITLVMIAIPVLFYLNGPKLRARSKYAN
Chain of pCgCDR (ABC) efflux pump in S. cerevisiae YEM-39 (Q6FK23 whole entry): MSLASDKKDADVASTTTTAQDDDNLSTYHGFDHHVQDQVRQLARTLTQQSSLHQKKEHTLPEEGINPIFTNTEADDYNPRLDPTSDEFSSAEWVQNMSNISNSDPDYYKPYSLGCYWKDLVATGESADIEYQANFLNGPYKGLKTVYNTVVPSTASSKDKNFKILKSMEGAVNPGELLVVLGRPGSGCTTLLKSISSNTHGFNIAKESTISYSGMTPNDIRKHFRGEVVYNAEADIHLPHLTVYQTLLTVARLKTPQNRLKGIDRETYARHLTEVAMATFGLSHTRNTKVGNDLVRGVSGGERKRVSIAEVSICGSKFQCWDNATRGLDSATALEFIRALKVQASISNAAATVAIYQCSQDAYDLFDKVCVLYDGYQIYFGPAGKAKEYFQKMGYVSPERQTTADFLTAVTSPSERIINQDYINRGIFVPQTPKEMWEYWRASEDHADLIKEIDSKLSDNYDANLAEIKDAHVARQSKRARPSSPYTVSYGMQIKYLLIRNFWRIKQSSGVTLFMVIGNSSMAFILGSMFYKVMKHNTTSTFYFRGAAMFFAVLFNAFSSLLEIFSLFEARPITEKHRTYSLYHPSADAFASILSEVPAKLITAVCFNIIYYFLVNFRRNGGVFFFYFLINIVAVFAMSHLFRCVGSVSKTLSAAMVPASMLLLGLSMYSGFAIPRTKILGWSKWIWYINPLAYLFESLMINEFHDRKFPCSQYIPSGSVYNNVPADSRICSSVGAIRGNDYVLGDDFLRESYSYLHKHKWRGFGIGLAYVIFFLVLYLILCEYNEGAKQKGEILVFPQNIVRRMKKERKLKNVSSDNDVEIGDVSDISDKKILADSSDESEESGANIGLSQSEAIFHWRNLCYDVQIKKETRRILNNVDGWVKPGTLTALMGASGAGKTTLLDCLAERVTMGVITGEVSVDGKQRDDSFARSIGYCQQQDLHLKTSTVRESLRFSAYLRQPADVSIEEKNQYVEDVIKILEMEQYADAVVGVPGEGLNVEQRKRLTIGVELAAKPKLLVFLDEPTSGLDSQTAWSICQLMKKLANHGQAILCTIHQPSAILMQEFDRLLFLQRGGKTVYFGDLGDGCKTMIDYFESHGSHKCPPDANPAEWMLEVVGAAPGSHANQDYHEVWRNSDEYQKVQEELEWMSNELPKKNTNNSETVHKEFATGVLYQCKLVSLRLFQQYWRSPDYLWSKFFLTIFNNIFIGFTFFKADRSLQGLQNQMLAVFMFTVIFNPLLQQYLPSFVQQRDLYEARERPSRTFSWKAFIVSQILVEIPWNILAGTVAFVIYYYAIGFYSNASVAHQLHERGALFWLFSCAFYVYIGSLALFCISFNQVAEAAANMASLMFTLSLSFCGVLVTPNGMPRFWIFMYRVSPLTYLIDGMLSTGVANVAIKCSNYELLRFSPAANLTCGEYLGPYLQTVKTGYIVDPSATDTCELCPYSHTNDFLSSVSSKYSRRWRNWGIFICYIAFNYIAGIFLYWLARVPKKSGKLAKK
Chain of pCDRI (ABC) efflux pump in S. cerevisiae YEM-1 (P43071 whole entry): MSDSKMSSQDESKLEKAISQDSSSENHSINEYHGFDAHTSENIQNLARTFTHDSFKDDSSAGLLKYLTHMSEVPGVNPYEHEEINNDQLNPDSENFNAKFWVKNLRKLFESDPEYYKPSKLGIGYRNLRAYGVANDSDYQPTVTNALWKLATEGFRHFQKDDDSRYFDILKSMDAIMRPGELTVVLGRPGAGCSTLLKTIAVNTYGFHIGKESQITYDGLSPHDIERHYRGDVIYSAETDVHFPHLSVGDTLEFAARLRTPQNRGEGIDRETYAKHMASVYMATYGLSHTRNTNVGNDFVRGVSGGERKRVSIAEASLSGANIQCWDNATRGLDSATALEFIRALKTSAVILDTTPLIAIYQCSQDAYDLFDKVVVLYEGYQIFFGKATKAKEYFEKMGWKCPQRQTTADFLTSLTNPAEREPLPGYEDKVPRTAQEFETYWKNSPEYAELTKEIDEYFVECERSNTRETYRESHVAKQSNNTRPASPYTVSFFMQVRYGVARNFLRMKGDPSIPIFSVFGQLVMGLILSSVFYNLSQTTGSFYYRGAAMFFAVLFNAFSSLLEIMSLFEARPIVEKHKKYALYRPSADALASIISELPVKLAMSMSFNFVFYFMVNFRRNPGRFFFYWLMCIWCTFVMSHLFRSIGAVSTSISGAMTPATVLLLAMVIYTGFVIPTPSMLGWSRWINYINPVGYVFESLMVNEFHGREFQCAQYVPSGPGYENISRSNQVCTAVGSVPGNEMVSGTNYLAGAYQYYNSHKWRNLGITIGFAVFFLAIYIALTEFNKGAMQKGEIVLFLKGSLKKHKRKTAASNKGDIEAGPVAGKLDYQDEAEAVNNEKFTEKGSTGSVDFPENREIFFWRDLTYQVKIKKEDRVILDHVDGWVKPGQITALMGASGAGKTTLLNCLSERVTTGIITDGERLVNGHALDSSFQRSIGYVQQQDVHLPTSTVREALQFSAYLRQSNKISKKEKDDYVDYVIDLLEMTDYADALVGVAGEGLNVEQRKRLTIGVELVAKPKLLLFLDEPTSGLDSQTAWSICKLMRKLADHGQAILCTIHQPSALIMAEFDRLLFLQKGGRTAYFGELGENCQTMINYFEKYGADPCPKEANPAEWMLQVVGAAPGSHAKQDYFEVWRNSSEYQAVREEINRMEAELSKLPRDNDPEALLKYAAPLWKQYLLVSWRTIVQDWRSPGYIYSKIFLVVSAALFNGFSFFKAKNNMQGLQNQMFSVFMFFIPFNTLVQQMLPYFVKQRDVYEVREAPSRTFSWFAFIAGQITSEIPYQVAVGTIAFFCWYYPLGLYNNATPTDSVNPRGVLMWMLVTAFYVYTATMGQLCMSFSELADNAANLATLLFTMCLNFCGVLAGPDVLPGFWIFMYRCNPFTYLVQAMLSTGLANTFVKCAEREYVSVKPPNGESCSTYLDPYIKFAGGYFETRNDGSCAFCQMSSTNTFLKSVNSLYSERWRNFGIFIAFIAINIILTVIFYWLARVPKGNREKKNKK

Molecule | MIC of compound in the presence of fluconazole (+) [1] | MIC of compound in the absence of fluconazole (−) [1] | MIC of compound in the presence of fluconazole (+) [2] | MIC of compound in the absence of fluconazole (−) [2] | IC50 [3] | IC50 [4] | MIC of compound in the presence of fluconazole (+) [5] | MIC of compound in the absence of fluconazole (−) [5] | FEPI MIC with itraconazole, 60% Inh (Aspergillus fumigatus; 60% inhibition) | FEPI MIC with itraconazole, 80% Inh (Aspergillus fumigatus; 80% inhibition) | FEPI MIC with ketoconazole, 60% Inh (Aspergillus fumigatus; 60% inhibition) | FEPI MIC with ketoconazole, 80% Inh (Aspergillus fumigatus; 80% inhibition) | FEPI MIC (alone) (Aspergillus fumigatus; 80% inhibition) | MIC of compound in the presence of fluconazole (+) [6] | MIC of compound in the absence of fluconazole (−) [6] | MIC of compound in the absence of fluconazole (−) (YEM 53 C. krusei; YEM 53, 24 hrs, 80% inhibition) | MIC of compound in the presence of fluconazole (+) [10] | MIC of compound in the absence of fluconazole (−) [10] | MIC of compound in the absence of fluconazole (−) (YEM 30 C. albicans wt; YEM 30, 24 hrs, 80% inhibition) | MIC of compound in the absence of fluconazole (−) (YEM 51 C. glabrata wt; YEM 51, 24 hrs, 80% inhibition) | other results
CC[C@H]1O[C@]2(CC[C@@H]1C)C[C@@H]1C[C@@H](C/C=C(\C)C[C@@H](C)/C=C/C=C3\CO[C@@H]4[C@H](O)C(C)=C[C@@H](C(=O)O1)[C@]34O)O2 [Compound 7, Milbemycin α3] | > 64 µg/mL | > 64 µg/mL | > 64 µg/mL | > 64 µg/mL | 14.7 µM | 29.5 µM | > 64 µg/mL | > 64 µg/mL | >64 | >64 | ≦0.063 | ≦0.063 | >64 | > 64 µg/mL | > 64 µg/mL | > 64 µg/mL | 0.125 µg/mL | > 64 µg/mL | > 64 µg/mL | > 64 µg/mL | FEPI MIC with fluconazole, 60% Inh (Aspergillus fumigatus): >64; FEPI MIC with fluconazole, 80% Inh (Aspergillus fumigatus): >64; IC50 [7]: 29.5 µM; IC50 [8]: > 118 µM; MIC of compound in the presence of fluconazole (+) (YEM 53 C. krusei): 16 µg/mL; FEPIhalf (concentration needed to reduce activity of efflux pump by 50%) [9, 12]: >64; MIC of compound in the presence of fluconazole (+) (YEM 30 C. albicans wt): ≦0.03; IC50 [11]: 0.921 µM; MIC of compound in the presence of fluconazole (+) (YEM 51 C. glabrata wt): > 64 µg/mL
CC1=C[C@H]2C(=O)O[C@H]3C[C@@H](C/C=C(\C)C[C@@H](C)/C=C/C=C4\CO[C@H]([C@@H]1O)[C@@]42O)O[C@]1(C3)C[C@H](O)[C@H](C)[C@@H](/C(C)=C/C(C)C)O1 [Compound 15, LL-F2849α (nemedectinα)] | > 64 µg/mL | > 64 µg/mL | 2 µg/mL | > 64 µg/mL | 1.63 µM | > 104 µM | > 64 µg/mL | > 64 µg/mL | 1 | >64 | 0.25 | 0.25 | >64 | > 64 µg/mL | > 64 µg/mL | > 64 µg/mL | 0.5 µg/mL | > 64 µg/mL | > 64 µg/mL | > 64 µg/mL | FEPI MIC with fluconazole, 60% Inh (Aspergillus fumigatus): 0.25; FEPI MIC with fluconazole, 80% Inh (Aspergillus fumigatus): >64; IC50 [7]: 6.53 µM; IC50 [8]: > 104 µM; MIC of compound in the presence of fluconazole (+) (YEM 53 C. krusei): > 64 µg/mL; FEPIhalf (concentration needed to reduce activity of efflux pump by 50%) [9, 12]: >64; MIC of compound in the presence of fluconazole (+) (YEM 30 C. albicans wt): ≦0.03; IC50 [11]: 3.26 µM; MIC of compound in the presence of fluconazole (+) (YEM 51 C. glabrata wt): 4 µg/mL
LL-F2849α oxime [Compound 18] | > 64 µg/mL | > 64 µg/mL | > 64 µg/mL | > 64 µg/mL | – | – | > 64 µg/mL | > 64 µg/mL | >64 | >64 | 0.125 | 0.125 | >64 | > 64 µg/mL | > 64 µg/mL | > 64 µg/mL | > 64 µg/mL | > 64 µg/mL | > 64 µg/mL | > 64 µg/mL | FEPIhalf (concentration needed to reduce activity of efflux pump by 50%) ([3]; YEM-37 pCDR2, fluconazole fixed at FLUhalf 1): >64; FEPIhalf (concentration needed to reduce activity of efflux pump by 50%) ([4]; YEM-2 pBEN, fluconazole fixed at FLUhalf 5.6): >64; FEPI MIC with fluconazole, 60% Inh (Aspergillus fumigatus; fluconazole 32 μg/ml (1/4 MIC), 60% inhibition): 8; FEPI MIC with fluconazole, 80% Inh (Aspergillus fumigatus; fluconazole 32 μg/ml (1/4 MIC), 80% inhibition): >64; FEPIhalf (concentration needed to reduce activity of efflux pump by 50%) ([7]; YEM-39 pCgCDR, fluconazole fixed at FLUhalf 4): >64; FEPIhalf (concentration needed to reduce activity of efflux pump by 50%) ([8]; YEM-38 pFLU, fluconazole fixed at FLUhalf 2): >64; MIC of compound in the presence of fluconazole (+) (YEM 53 C. krusei; YEM 53, 1/8 × MIC of fluconazole, 24 hrs, 80% inhibition): > 64 µg/mL; FEPIhalf (concentration needed to reduce activity of efflux pump by 50%) [9]: >64; MIC of compound in the presence of fluconazole (+) (YEM 30 C. albicans wt; YEM 30, 1/8 × MIC of fluconazole, 24 hrs, 80% inhibition): ≦0.03; FEPIhalf (concentration needed to reduce activity of efflux pump by 50%) ([11]; YEM-1 pCDRI, fluconazole fixed at FLUhalf 5.6): >64; MIC of compound in the presence of fluconazole (+) (YEM 51 C. glabrata wt; YEM 51, 1/8 × MIC of fluconazole, 24 hrs, 80% inhibition): > 64 µg/mL
CCC(CC)C(=O)OCC1=C[C@H]2C(=O)O[C@H]3C[C@@H](C/C=C(\C)C[C@@H](C)/C=C/C=C4\CO[C@H]([C@@H]1O)[C@@]42O)O[C@@]1(CC[C@H](C)[C@@H](C)O1)C3 [Compound 21, 4a-O-(2-ethyl)butyryl milbemycin α1] | > 64 µg/mL | > 64 µg/mL | 8 µg/mL | > 64 µg/mL | 6.22 µM | > 99.6 µM | > 64 µg/mL | > 64 µg/mL | 1 | 8 | ≦0.063 | ≦0.063 | >64 | > 64 µg/mL | > 64 µg/mL | > 64 µg/mL | 1 µg/mL | > 64 µg/mL | > 64 µg/mL | > 64 µg/mL | FEPI MIC with fluconazole, 60% Inh (Aspergillus fumigatus): 8; FEPI MIC with fluconazole, 80% Inh (Aspergillus fumigatus): 8; IC50 [7]: > 99.6 µM; IC50 [8]: > 99.6 µM; MIC of compound in the presence of fluconazole (+) (YEM 53 C. krusei): 8 µg/mL; FEPIhalf (concentration needed to reduce activity of efflux pump by 50%) [9, 12]: >64; MIC of compound in the presence of fluconazole (+) (YEM 30 C. albicans wt): 0.125 µg/mL; IC50 [11]: 1.56 µM; MIC of compound in the presence of fluconazole (+) (YEM 51 C. glabrata wt): 8 µg/mL
